Source: patent US5576311A, “Cyclodextrins as suspending agents for pharmaceutical suspensions” (Pharmos Corporation, priority 1994, dated 1996)
Values after ≈ are worked out from the molar mass of the structure shown. Where two headings read alike, the source gives them in different places.

Key:
[1] = in vivo; cited from earlier work
[2] = Method D: solubilization of LE by cyclodextrins, HPLC before and after centrifugation; format: physicochemical
Description: To evaluate solubilization of drugs such as LE by cyclodextrins, LE is continuously mixed with cyclodextrins in various concentrations in water for one week at room temperature. Samples of the resulting suspensions and the soluble fractions of LE are analyzed by high pressure liquid chromatography ("HPLC") before and after centrifugation at 5000 G, respectively (hereinafter referred to as "Method D"). The concentrations of LE are calculated from the area under the curve of the LE peak using known techniques.

[3] = in vivo; cited from earlier work; remark: listed apart in the source
[4] = Stability of aqueous suspensions of LE with buffering systems or ionic tonicity agents; format: physicochemical; conditions: accepted buffering systems or ionic tonicity agents
[5] = HPLC measurement of concentration of LE in cyclodextrin suspensions after storage; format: physicochemical
glucocorticoid receptors = conditions: cited from earlier work
[6] = 25° C.; cited from earlier work

CCOC(=O)O[C@]1(C(=O)OCCl)CC[C@H]2[C@@H]3CCC4=CC(=O)C=C[C@]4(C)[C@H]3[C@@H](O)C[C@@]21C [LE, loteprednol etabonate]
efficacy relative to prednisolone acetate [1]: efficacy similar to its parent compound, namely, prednisolone acetate
ocular anti-inflammatory activity [1]: has ocular anti-inflammatory activity
solubility at 168 h ([2]; water with 0.5% hpcd, 0.5% HPCD, water, one week, room temperature, read-out: LE Solubilized): 7 µg/mL (≈ 15 µM)
solubility at 168 h ([2]; water with 1.0% bcd, 1.0% BCD, water, one week, room temperature, read-out: LE Solubilized): 10 µg/mL (≈ 21.4 µM)
solubility at 168 h ([2]; water with 1.0% hecd, 1.0% HECD, water, one week, room temperature, read-out: LE Solubilized): 10 µg/mL (≈ 21.4 µM)
solubility at 168 h ([2]; water with 1.0% hpcd, 1.0% HPCD, water, one week, room temperature, read-out: LE Solubilized): 5 µg/mL (≈ 10.7 µM)
solubility at 168 h ([2]; water with cyclodextrin, all cyclodextrins of Table 3, read-out: LE solubilized by cyclodextrins): ≤ 10 µg/mL
risk of steroid induced cataracts and elevation of intra-ocular pressure [3]: reducing the risk of steroid induced cataracts and elevation of intra-ocular pressure
obtaining stable aqueous suspensions [4]: cannot be obtained
[LE] measurement (% of label) ([5]; 5 mg/ml label, BCD 1%, 23 C, 4.0 mos, 172800 min): 106.78 % of label
[LE] measurement (% of label) ([5]; 5 mg/ml label, HECD 1%, 23 C, 4.0 mos, 172800 min): 104.26 % of label
[LE] measurement (% of label) ([5]; 5 mg/ml label, HPCD 0.5%, 23 C, 5.0 mos, 216000 min): 101.12 % of label
[LE] measurement (% of label) ([5]; 5 mg/ml label, HPCD 1%, 23 C, 0.5 mos, 21600 min): 94.3 % of label
[LE] measurement (% of label) ([5]; 5 mg/ml label, HPCD 1%, 23 C, 5.0 mos, 216000 min): 115.45 % of label
[LE] measurement (% of label) ([5]; 5 mg/ml label, HPCD 1%, 37 C, 2.0 mos, 86400 min): 104.04 % of label
[LE] measurement (% of label) ([5]; 5 mg/ml label, HPCD 1%, 45 C, 2.0 mos, 86400 min): 96.84 % of label
[LE] measurement (% of label) ([5]; 10 mg/ml label, BCD 1%, 23 C, 4.0 mos, 172800 min): 105.7 % of label
[LE] measurement (% of label) ([5]; 10 mg/ml label, HECD 1%, 23 C, 4.0 mos, 172800 min): 135.88 % of label
[LE] measurement (% of label) ([5]; 10 mg/ml label, HPCD 0.5%, 23 C, 5.0 mos, 216000 min): 109.09 % of label
[LE] measurement (% of label) ([5]; 10 mg/ml label, HPCD 1%, 23 C, 0.5 mos, 21600 min): 88.18 % of label
[LE] measurement (% of label) ([5]; 10 mg/ml label, HPCD 1%, 23 C, 5.0 mos, 216000 min): 110.23 % of label
concentration of LE in the suspension (in words) ([5]; Table 4 storage): not significantly altered

CCOC(=O)OC1(C(=O)O)CCC2C3CCC4=CC(=O)C=CC4(C)C3C(O)CC21C (stereo not drawn) [PJ-91]
binding to glucocorticoid receptors (glucocorticoid receptors): does not bind to glucocorticoid receptors

OC[C@H]1O[C@@H]2O[C@H]3[C@H](O)[C@@H](O)[C@@H](O[C@H]4[C@H](O)[C@@H](O)[C@@H](O[C@H]5[C@H](O)[C@@H](O)[C@@H](O[C@H]6[C@H](O)[C@@H](O)[C@@H](O[C@H]7[C@H](O)[C@@H](O)[C@@H](O[C@H]8[C@H](O)[C@@H](O)[C@@H](O[C@H]1[C@H](O)[C@H]2O)O[C@@H]8CO)O[C@@H]7CO)O[C@@H]6CO)O[C@@H]5CO)O[C@@H]4CO)O[C@@H]3CO [β-Cyclodextrin, β-cyclodextrin]
aqueous solubility [6]: about 1.8 % w/v
